Results on 37 compounds are retold here after ChEMBL document CHEMBL1821700, “SAR by interligand nuclear overhauser effects (ILOEs) based discovery of acylsulfonamide compounds active against Bcl-x(L) and Mcl-1” (J Med Chem, 2011).

The structures appear in SMILES notation.

In assay [1] the target is Induced myeloid leukemia cell differentiation protein Mcl-1 (Homo sapiens, UniProt Q07820). The experiment in a line: Displacement of FITC labeled Bak BH3 peptide from Mcl-1 after 2 mins by Fluorescence Polarization assay. (In general: Polarisation of emitted light reports the rotation of a fluorescent probe.)
The target of assay [2] is T1, Bcl-2-like protein 1 (Homo sapiens, UniProt Q07817). The experiment in a line: Displacement of FITC labeled Bak BH3 peptide from Bcl-xL after 10 mins by Fluorescence Polarization assay.
Assay [3] addresses T1, Bcl-2-like protein 1. The experiment in a line: Binding affinity to Bcl-xL by 2D- NOESY analysis.

Chain of Induced myeloid leukemia cell differentiation protein Mcl-1 (Q07820 whole entry): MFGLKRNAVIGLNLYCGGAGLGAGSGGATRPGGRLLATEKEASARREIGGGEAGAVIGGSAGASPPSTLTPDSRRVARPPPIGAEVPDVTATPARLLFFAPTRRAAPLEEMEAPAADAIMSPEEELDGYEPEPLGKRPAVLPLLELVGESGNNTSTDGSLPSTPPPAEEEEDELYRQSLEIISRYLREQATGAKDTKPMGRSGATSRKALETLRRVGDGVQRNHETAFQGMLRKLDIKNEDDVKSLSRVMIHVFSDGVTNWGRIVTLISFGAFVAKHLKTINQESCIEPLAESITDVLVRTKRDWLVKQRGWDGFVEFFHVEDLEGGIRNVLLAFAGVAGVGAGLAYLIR
T1 sequence (Q07817 whole entry): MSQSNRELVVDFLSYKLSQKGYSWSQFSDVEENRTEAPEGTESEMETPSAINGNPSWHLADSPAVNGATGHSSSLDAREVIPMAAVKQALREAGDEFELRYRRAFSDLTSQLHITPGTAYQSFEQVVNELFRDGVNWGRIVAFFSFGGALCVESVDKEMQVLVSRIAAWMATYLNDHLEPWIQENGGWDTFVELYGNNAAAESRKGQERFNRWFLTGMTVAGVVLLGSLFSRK

By IC50 is commonly meant the point on the concentration scale where inhibition reaches its midpoint. The low end stands for inhibition by little substance, the high end for a need for much substance. Turning to `O=C(NS(=O)(=O)c1ccc(Oc2ccccc2)cc1)c1cccc(-c2ccc(Cl)c(Cl)c2)c1`, the values for the concentration for half-maximal inhibition (IC50) (in assay [1]; on Bcl-2-like protein 1 [2]) were 2.48 µM and 1.97 µM, respectively.
The like results for `O=C(NS(=O)(=O)c1ccc(Oc2c(Cl)cccc2[N+](=O)[O-])cc1)c1cccc(-c2ccc(Cl)c(Cl)c2)c1` were, in that order, 3.04 µM and 2 µM.
Take `O=C(NS(=O)(=O)c1ccc(Oc2ccccc2)cc1)c1ccc(-c2ccccc2)cc1`: the figures for the IC50 (in assay [1]; on Bcl-2-like protein 1 [2]) were 3.56 µM and 28 µM, respectively.
The like results for `O=C(NS(=O)(=O)c1ccc(COc2ccccc2)cc1)c1ccc(-c2ccc(Cl)cc2)cc1` were, in that order, 7.26 µM and 3.79 µM.
For `CCCCOc1ccc(S(=O)(=O)NC(=O)c2cccc(-c3ccc(Cl)c(Cl)c3)c2)cc1`, the values for the concentration for half-maximal inhibition (IC50) (in assay [1]; on Bcl-2-like protein 1 [2]) were 38.8 µM and 12.1 µM, respectively.
The like results for `O=C(NS(=O)(=O)c1ccc(OCc2ccccc2)cc1)c1ccc(-c2cc(Cl)cc(Cl)c2)cc1` were, in that order, 6.3 µM and 3.19 µM.
A word on the Kd: it is the constant that tells how readily two partners part at equilibrium. On Bcl-2-like protein 1 [3], `Nc1ncccc1OCc1ccccc1` displayed a Kd of 692 µM.
In the case of `O=C(NS(=O)(=O)c1ccc(COc2ccccc2)cc1)c1ccc(-c2cc(Cl)cc(Cl)c2)cc1`, the results for the IC50 (in assay [1]; at Bcl-2-like protein 1 [2]) were 2.51 µM and 4.14 µM, respectively.
The like results for `O=C(NS(=O)(=O)c1ccc(OCc2ccccc2)cc1)c1cccc(-c2cc(Cl)cc(Cl)c2)c1` were, in that order, 0.22 µM and 0.18 µM.
The like results for `O=C(NS(=O)(=O)c1ccc(-c2ccccc2)cc1)c1ccc(Oc2ccccc2)cc1` were, in that order, > 1000 µM and 161 µM.
With `O=C(NS(=O)(=O)c1ccc(Oc2ccccc2)cc1)c1ccc(-c2cc(Cl)cc(Cl)c2)cc1`, the IC50 in assay [1] is 5.08 µM; on Bcl-2-like protein 1 [2], 49.5 µM.
The like results for `O=C(NS(=O)(=O)c1ccc(Oc2ccccc2)cc1)c1cccc(-c2ccc(Cl)cc2Cl)c1` were, in that order, 3.72 µM and 1.94 µM.
In the case of `O=C(NS(=O)(=O)c1ccc(COc2ccccc2)cc1)c1ccc(-c2ccccc2)cc1`, the IC50 in assay [1] is 43.2 µM; at Bcl-2-like protein 1 [2] it was 16.8 µM.
The like results for `O=C(NS(=O)(=O)c1ccc(Oc2ccccc2)nc1)c1cccc(-c2cc(Cl)cc(Cl)c2)c1` were, in that order, 9.78 µM and 2.31 µM.
`O=C(NS(=O)(=O)c1ccc(Oc2ccc(F)cc2)cc1)c1cccc(-c2ccc(Cl)c(Cl)c2)c1`: the results for the IC50 (in assay [1]; at Bcl-2-like protein 1 [2]) were 3.91 µM and 2.87 µM, respectively.
The like results for `O=C(NS(=O)(=O)c1ccc(Oc2ccccc2)cc1)c1ccc(-c2ccc(F)cc2)cc1` were, in that order, 17.8 µM and 33.5 µM.
Consider `O=C(NS(=O)(=O)c1ccc(Oc2ccccc2)cc1)c1cccc(-c2cc(Cl)cc(Cl)c2)c1`, for which the IC50 in assay [1] came to 7.11 µM; on Bcl-2-like protein 1 [2], 2.53 µM.
Consider `O=C(NS(=O)(=O)c1ccc2ccccc2c1)c1cccc(-c2ccc(Cl)c(Cl)c2)c1`, for which the IC50 stood at 13.2 µM in assay [1] and 10.9 µM on Bcl-2-like protein 1 [2].
The like results for `O=C(NS(=O)(=O)c1ccc(COc2ccccc2)cc1)c1ccc(-c2ccc(F)cc2)cc1` were, in that order, 16.6 µM and 9.37 µM.
The like results for `N#Cc1c(Cl)cccc1Oc1ccc(S(=O)(=O)NC(=O)c2cccc(-c3ccc(Cl)c(Cl)c3)c2)cc1` were, in that order, 3.18 µM and 2.7 µM.
The like results for `O=C(NS(=O)(=O)c1ccc(COc2ccccc2)cc1)c1cccc(-c2ccc(Cl)c(Cl)c2)c1` were, in that order, 5.76 µM and 7.15 µM.
Take `COc1ccccc1Oc1ccc(S(=O)(=O)NC(=O)c2cccc(-c3ccc(Cl)c(Cl)c3)c2)cc1`: the figures for the IC50 (in assay [1]; at Bcl-2-like protein 1 [2]) were 6.63 µM and 3.76 µM, respectively.
As to `Oc1cccc2c1CCCC2`, the Kd at Bcl-2-like protein 1 [3] amounted to 4300 µM.
Consider `O=C(NS(=O)(=O)c1ccc(Oc2ccccc2)cc1)c1cccc(-c2ccccc2)c1`, for which the IC50 in assay [1] is 3.24 µM; at Bcl-2-like protein 1 [2] it was 28.5 µM.
In the case of `O=C(NS(=O)(=O)c1ccc(OCc2ccccc2)cc1)c1cccc(-c2ccc(Cl)c(Cl)c2)c1`, the IC50 in assay [1] turned out to be 4.88 µM; on Bcl-2-like protein 1 [2], 2.96 µM.
Regarding `O=C(NS(=O)(=O)c1ccc(COc2ccccc2)cc1)c1cccc(-c2cc(Cl)cc(Cl)c2)c1`, the IC50 in assay [1] came out at 7.57 µM; at Bcl-2-like protein 1 [2] it was 0.31 µM.
The like results for `O=C(NS(=O)(=O)c1ccc(OCC2CCCCC2)cc1)c1cccc(-c2ccc(Cl)c(Cl)c2)c1` were, in that order, 0.62 µM and 0.16 µM.
The like results for `O=C(NS(=O)(=O)c1ccc(Oc2cc(C(F)(F)F)cc(C(F)(F)F)c2)cc1)c1cccc(-c2ccc(Cl)c(Cl)c2)c1` were, in that order, 3.04 µM and 2.94 µM.
The like results for `O=C(NS(=O)(=O)c1ccc(COc2ccccc2)cc1)c1cccc(-c2ccc(C(F)(F)F)cc2)c1` were, in that order, 8.37 µM and 6.2 µM.
For `O=C(NS(=O)(=O)c1ccc(COc2ccccc2)cc1)c1cccc(-c2ccc(Cl)cc2Cl)c1`, the IC50 is 8.69 µM in assay [1] and 9.98 µM on Bcl-2-like protein 1 [2].
Regarding `O=C(NS(=O)(=O)c1ccc(COc2ccccc2)cc1)c1cccc(-c2ccccc2)c1`, the results for the IC50 (in assay [1]; on Bcl-2-like protein 1 [2]) were 25.4 µM and 15.1 µM, respectively.
In the case of `O=C(O)c1ccccc1N1CCCCC1`, the Kd at Bcl-2-like protein 1 [3] stood at 378 µM.
Turning to `COc1ccc(-c2cccc(C(=O)NS(=O)(=O)c3ccc(Oc4ccccc4)cc3)c2)cc1OC`, the IC50 in assay [1] is 42.6 µM; on Bcl-2-like protein 1 [2], > 1000 µM.
In the case of `CCOc1ccc(Oc2ccc(S(=O)(=O)NC(=O)c3cccc(-c4ccc(Cl)c(Cl)c4)c3)cc2)cc1`, the half-maximal inhibitory concentration (IC50) in assay [1] turned out to be 0.14 µM; at Bcl-2-like protein 1 [2], 0.086 µM.
On Bcl-2-like protein 1 [3], `O=C(O)c1ccc(-c2ccc(F)cc2)cc1` had a Kd of 300 µM.
For `O=C(NS(=O)(=O)c1ccc(Oc2ccccc2)cc1)c1cccc(-c2cccc(Cl)c2Cl)c1`, the IC50 in assay [1] worked out at 4.76 µM; on Bcl-2-like protein 1 [2], 4.08 µM.
In the case of `O=C(NS(=O)(=O)c1ccc(COc2ccccc2)cc1)c1ccccc1-c1ccccc1`, the IC50 in assay [1] is > 1000 µM; at Bcl-2-like protein 1 [2] it was 42.7 µM.
